Laboratory results published in paper PMC2804908 (Journal of medicinal chemistry, 2010).
pEC50: −log10 of the molar value. Where “and” joins values, the source holds several entries; their conditions need not be identical. Equal values may be shown once. Read-outs that look alike come from different tables or passages of the source.

Tests used:
hP2Y14 receptor = biological target: T1, hP2Y14 receptor (Homo sapiens, UniProt Q15391); test: P2Y14 receptor-inhibited accumulation of cAMP; type: cell-based; conditions: for agonist activity at the P2Y14 receptor (in words): HEK-293 cells expressing hP2Y14; for fold selectivity for P2Y14 in comparison to P2Y6: ratio of EC50 at hP2Y6 to EC50 at hP2Y14; for fold more potent than UDP 3 at the P2Y14 receptor / fold less potent than UDP 3 at the P2Y14 receptor: relative to compound 3; for pEC50: read-out: EC50, hP2Y14, inhibition of cAMP formation, HEK-293 cells stably transfected with hP2Y14, mean ± standard error, N = 3, NE = no effect at 10 μM
T1 sequence (Q15391 1-338): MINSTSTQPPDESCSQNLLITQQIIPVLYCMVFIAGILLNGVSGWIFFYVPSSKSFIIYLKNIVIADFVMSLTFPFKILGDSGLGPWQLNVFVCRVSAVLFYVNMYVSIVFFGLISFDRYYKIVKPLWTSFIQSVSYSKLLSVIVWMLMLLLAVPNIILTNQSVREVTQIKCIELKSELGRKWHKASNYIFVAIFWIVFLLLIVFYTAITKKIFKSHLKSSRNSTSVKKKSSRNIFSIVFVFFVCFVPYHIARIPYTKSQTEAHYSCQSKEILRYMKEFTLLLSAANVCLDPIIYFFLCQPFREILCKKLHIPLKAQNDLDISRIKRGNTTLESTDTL

hP2Y6 receptor [1] = biological target: T2, hP2Y6 receptor (Homo sapiens, UniProt Q15077); test: P2Y6 receptor-stimulated PLC activity; type: cell-based; conditions: for agonist activity at the P2Y6 receptor (in words): at the concentrations tested
T2 sequence (Q15077 whole entry): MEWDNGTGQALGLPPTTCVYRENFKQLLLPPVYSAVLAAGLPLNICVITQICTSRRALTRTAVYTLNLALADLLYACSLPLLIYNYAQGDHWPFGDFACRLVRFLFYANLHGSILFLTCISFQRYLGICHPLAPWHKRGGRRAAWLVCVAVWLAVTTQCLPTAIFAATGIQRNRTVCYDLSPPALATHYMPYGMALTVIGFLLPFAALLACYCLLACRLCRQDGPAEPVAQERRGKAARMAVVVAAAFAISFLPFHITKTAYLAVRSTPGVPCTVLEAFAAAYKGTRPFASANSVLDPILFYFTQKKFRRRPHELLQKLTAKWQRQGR

hP2Y6 receptor [2] = biological target: T2, hP2Y6 receptor; conditions: read-out: EC50, hP2Y6; stimulation of PLC, hP2Y6 in 1321N1 cells; footnote b; NE = no effect at 10 μM; ref Maruoka et al. 15, Besada et al. 17, Ko et al. 18; cited from earlier work

O=c1ccn([C@@H]2O[C@H](COP(=O)(O)OP(=O)(O)O)[C@@H](O)[C@H]2O)c(=O)[nH]1 [Compound 3, uridine-5′-diphosphate, reference compound]
agonist activity at the P2Y14 receptor (in words) (hP2Y14 receptor): moderately potent agonists | agonist activity at the P2Y14 receptor (in words) (hP2Y14 receptor; listed as UDP): full agonist

O=c1ccn([C@@H]2O[C@H](COP(=O)(O)OP(=O)(O)O)[C@@H](O)[C@H]2O)c(=S)[nH]1 [Compound 4, 2-thio-UDP]
fold selectivity for P2Y14 in comparison to P2Y6 (hP2Y14 receptor): 233 fold | fold more potent than UDP 3 at the P2Y14 receptor (hP2Y14 receptor): 83 fold

O=c1[nH]c(=S)ccn1[C@@H]1O[C@H](COP(=O)(O)OP(=O)(O)O)[C@@H](O)[C@H]1O [Compound 5, 4-thio-UDP]
agonist activity at the P2Y14 receptor (in words) (hP2Y14 receptor): moderately potent agonists

CO/N=c1\ccn([C@@H]2O[C@H](COP(=O)(O)OP(=O)(O)O)[C@@H](O)[C@H]2O)c(=O)[nH]1.Cl [Compound 7, N^4-OCH3-CDP]
fold less potent than UDP 3 at the P2Y14 receptor (hP2Y14 receptor): 20 fold

O=c1ccn([C@H]2[C@H](O)[C@H](O)[C@@]3(COP(=O)(O)OP(=O)(O)O)C[C@H]23)c(=O)[nH]1 [Compound 8, (N)-methanocarba UDP]
pEC50 (hP2Y14 receptor): < 5.00 | pEC50 (hP2Y6 receptor [1]; read-out: EC50, hP2Y6, stimulation of PLC, hP2Y6 stably expressed in 1321N1 cells, mean ± standard error, N = 3, >10,000 = <50% effect at 10 μM, NE = no effect at 10 μM): < 5.00

O=c1ccn([C@@]23C[C@H]2[C@H](COP(=O)(O)OP(=O)(O)O)[C@@H](O)[C@H]3O)c(=O)[nH]1 [Compound 9, (S)-methanocarba UDP]
pEC50 (hP2Y14 receptor): < 5.00

O=c1ccn([C@@H]2O[C@H](COP(=O)(O)C(F)(F)P(=O)(O)O)[C@@H](O)[C@H]2O)c(=O)[nH]1 [Compound 12, α,β-difluoromethylene UDP]
agonist activity at the P2Y6 receptor (in words) (hP2Y6 receptor [1]): did not activate | pEC50 (hP2Y6 receptor [2]): < 5.00

O=c1[nH]c(=O)n([C@@H]2O[C@H](COP(=O)(O)C(F)(F)P(=O)(O)O)[C@@H](O)[C@H]2O)cc1I [Compound 13, 5-I-Up-CF2-p]
fold selectivity for P2Y14 in comparison to P2Y6 (hP2Y14 receptor): not selective

COP(=O)(O)OP(=O)(O)OC[C@H]1O[C@@H](n2ccc(=O)[nH]c2=O)[C@H](O)[C@@H]1O.N [Compound 14, Diphosphoric acid 1-β-methyl ester 2-(uridine-5′-yl)ester]
agonist activity at the P2Y14 receptor (in words) (hP2Y14 receptor): weakly activated | agonist activity at the P2Y6 receptor (in words) (hP2Y6 receptor [1]): inactive

COP(=O)(O)OP(=O)(O)OC[C@H]1O[C@@H](n2ccc(=O)[nH]c2=S)[C@H](O)[C@@H]1O.N [Compound 15, Diphosphoric acid 1-β-methyl ester 2-(2-thiouridine-5′-yl)ester]
fold selectivity for P2Y14 in comparison to P2Y6 (hP2Y14 receptor): > 180 fold

COP(=O)(O)OP(=O)(O)OC[C@H]1O[C@@H](n2ccc(=S)[nH]c2=O)[C@H](O)[C@@H]1O [Compound 16, Diphosphoric acid 1-β-methyl ester 2-(4-thiouridine-5′-yl)ester]
pEC50 (hP2Y14 receptor): < 5.00

CCOP(=O)(O)OP(=O)(O)OC[C@H]1O[C@@H](n2ccc(=O)[nH]c2=S)[C@H](O)[C@@H]1O.N [Compound 17, Diphosphoric acid 1-β-ethyl ester 2-(2-thiouridine-5′-yl)ester]
fold selectivity for P2Y14 in comparison to P2Y6 (hP2Y14 receptor): > 200 fold and > 250 fold

CCCOP(=O)(O)OP(=O)(O)OC[C@H]1O[C@@H](n2ccc(=O)[nH]c2=S)[C@H](O)[C@@H]1O.N [Compound 18, Diphosphoric acid 1-β-propyl ester 2-(2-thiouridine-5′-yl)ester]
fold selectivity for P2Y14 in comparison to P2Y6 (hP2Y14 receptor): > 200 fold

N.N#CCCOP(=O)(O)OP(=O)(O)OC[C@H]1O[C@@H](n2ccc(=O)[nH]c2=O)[C@H](O)[C@@H]1O [Compound 19, Diphosphoric acid 1-β-(2-cyanoethyl)ester 2-(uridine-5′-yl)ester]
agonist activity at the P2Y14 receptor (in words) (hP2Y14 receptor): poorly tolerated

C#CCCOP(=O)(O)OP(=O)(O)OC[C@H]1O[C@@H](n2ccc(=O)[nH]c2=O)[C@H](O)[C@@H]1O.CCN(CC)CC [Compound 20, Diphosphoric acid 1-β-(3-butynyl)ester 2-(uridine-5′-yl)ester]
fold less potent than UDP 3 at the P2Y14 receptor (hP2Y14 receptor): 2 fold

C#CCCOP(=O)(O)OP(=O)(O)OC[C@H]1O[C@@H](n2ccc(=O)[nH]c2=S)[C@H](O)[C@@H]1O.CCN(CC)CC [Compound 21, Diphosphoric acid 1-β-(3-butynyl) ester 2-(2-thiouridine-5′-yl)ester]
fold selectivity for P2Y14 in comparison to P2Y6 (hP2Y14 receptor): > 900 fold | fold more potent than UDP 3 at the P2Y14 receptor (hP2Y14 receptor): 16 fold

N.O=c1ccn([C@@H]2O[C@H](COP(=O)(O)OP(=O)(O)OCC(O)CO)[C@@H](O)[C@H]2O)c(=O)[nH]1 (stereo partly drawn) [Compound 22, Diphosphoric acid 1-α-glycerol ester 2-(uridine-5′-yl)ester]
fold less potent than UDP 3 at the P2Y14 receptor (hP2Y14 receptor): 10 fold

CC(C)(C)OP(=O)(O)OP(=O)(O)OC[C@H]1O[C@@H](n2ccc(=O)[nH]c2=O)[C@H](O)[C@@H]1O [Compound 24, Diphosphoric acid 1-β-tert-butyl ester 2-(uridine-5′-yl)ester]
pEC50 (hP2Y6 receptor [1]): 4.97

CC(C)(C)OP(=O)(O)OP(=O)(O)OC[C@H]1O[C@@H](n2ccc(=O)[nH]c2=S)[C@H](O)[C@@H]1O.N [Compound 25, Diphosphoric acid 1-β-tert-butyl ester 2-(2-thiouridine-5′-yl)ester]
fold more potent than UDPG at the P2Y14 receptor (hP2Y14 receptor; relative to UDPG 1): 11 fold | fold more potent than the corresponding 2-oxo analogue 24 at the P2Y14 receptor (hP2Y14 receptor; relative to compound 24): 8 fold
